{
  "source": "paper PMC9234671",
  "about": "“Molecular determinants of αVβ5 localization in flat clathrin lattices – role of αVβ5 in cell adhesion and proliferation” (Journal of Cell Science, 2022)",
  "format_in_all_cases": "cell-based, human",
  "key": {"[1]": {"system": "integrin β5 localization in PA-JEB/β4 keratinocytes", "assay": "Immunofluorescence: integrin β5 clustering in FAs/FCLs, PA-JEB/β4", "text": "(§1) Fig. 3. Serine 759 and 762 are involved in regulating the localization of integrin β5. (A–C) Integrin β5 containing S759/762E or S759/762A mutations (A) were expressed in β5-deficient PA-JEB/β4 keratinocytes and the subcellular distribution of β5 was compared to β5-deficient keratinocytes expressing wild-type (WT) β5. Merged images show integrin β5 (green), vinculin (B) or clathrin (C) (red), actin (blue) and the cell nuclei (cyan). (D,E) Analysis of wild-type versus mutant integrin β5 clustering in FAs or FCLs. (F–I) PA-JEB/β4 keratinocytes were grown in 10% FCS-supplemented DMEM culture medium overnight and then treated with 5 nM calyculin A (Cal.A) or DMSO (vehicle control) for 30 min prior to fixation. Merged images show integrin β5 (green), vinculin (F) or clathrin (H) (red), actin (blue) and the cell nuclei (cyan), quantifications of β5 clustering in FAs or FCLs are shown in G,I. (J,K) Analysis of integrin β5 clustering in FAs or FCLs in PA-JEB keratinocytes after treatment with Cal.A. Representative confocal microscopy images are shown in Fig. S3. Scale bars: 20 μm. Data were obtained from three independent experiments. Total cells analyzed per condition: 109 (WT), 116 (S>E), 103 (S>A) (D), 81 (WT), 77 (S>E), 101 (S>A) (E), 126 and 123 (G), 111 and 101 (I), 106 and 102 (J), 115 and 109 (K). ****P<0.0001 (Mann–Whitney U-test). Box plots range from the 25th to 75th percentile; central line indicates the median; whiskers show smallest to largest value.\nPA-JEB/β4 keratinocytes were seeded on glass coverslips and cultured in complete KGM medium for 24 h, and then treated with DMEM plus 10% FCS for 24 h. Other cell lines were seeded on glass coverslips and cultured in DMEM plus 10% FCS. Cells were fixed with 2% paraformaldehyde (PFA) for 10 min, permeabilized with 0.2% Triton X-100 for 5 min, and blocked with PBS containing 2% bovine serum albumin (BSA; Sigma) for at least 30 min. Next, cells were incubated with the primary antibodies for 1 h at room temperature. Cells were washed three times before incubation with the secondary antibodies for 1 h. Additionally, nuclei were stained with DAPI, and filamentous actin was visualized using Alexa Fluor 488 or 647-conjugated phalloidin (Invitrogen). After three washing steps with PBS, the coverslips were mounted onto glass slides in Mowiol. Images were obtained using a Leica TCS SP5 confocal microscope with a 63× (NA 1.4) oil objective.\nImage analysis was performed using Fiji (ImageJ) ([Schindelin et al., 2012]; [Schneider et al., 2012]). To quantify integrin clustering in FAs (based on vinculin staining) versus FCLs (clathrin staining), background was subtracted in both channels using a bilateral filter and the region of interest (ROI) was selected at the cell periphery. Colocalization of integrin clusters and FAs or FCLs was determined using the Image Calculator (command ‘multiply’) on both channels and calculating the area of overlapping clusters as a percentage of the total integrin cluster area per cell using the Analyze Particle function."}, "[2]": {"system": "integrin β5 localization in PA-JEB keratinocytes", "assay": "Immunofluorescence: integrin β5 clustering in FAs/FCLs, PA-JEB", "details": "5 nM calyculin A versus DMSO, 30 min, 10% FCS DMEM, three independent experiments", "text": "as §1, with “Box plots range from the 25th to 75th percentile; central line indicates the median; whiskers show smallest to largest value.” left out"}, "[3]": {"system": "GEF-H1 (phospho S886) in PA-JEB and PA-JEB/β4 keratinocytes", "assay": "Western blot: GEF-H1 phosphorylation", "details": "after calyculin A, n=3", "description": "Proteins were separated by electrophoresis using a Bolt Novex 4–12% gradient Bis-Tris gels (Invitrogen) or 15% SDS-PAGE gels (made in-house), transferred to Immobilon-P transfer membranes (Millipore Corp) and blocked for at least 30 min in 2% BSA in TBST buffer (10 mM Tris-HCl pH 7.5, 150 mM NaCl and 0.3% Tween-20). Primary antibody (diluted 1:1000 in 2% BSA in TBST buffer) incubation took place overnight at 4°C. After washing twice with TBST and twice with TBS, blots were incubated for 1 h hour at room temperature with horseradish peroxidase-conjugated goat anti-mouse-IgG or goat anti-rabbit-IgG (diluted 1:3000 in 2% BSA in TBST buffer). After subsequent washing steps, the bound antibodies were detected by enhanced chemiluminescence using SuperSignal™ West Dura Extended Duration Substrate (ThermoFisher) or Clarity™ Western ECL Substrate (Bio-Rad) as described by the manufacturer. Signal intensities were quantified using ImageJ.\nFig. S4. (A) Representative western blots of phosphorylated myosin light chain (MLC) and GAPDH in PA-JEB/β4 keratinocytes treated with DMSO versus Nocodazole. […]\nμm. Quantifications of β5 or β5 mutants clustering in FAs are shown in (C-E). […] Total cells analyzed per condition: 90 (WT, DMSO), 111 (WT, Noco.) (C), 40 (S>E, DMSO), 80 (S>E, Noco.) (D), 65 (S>A, DMSO), 82 (S>A, Noco.) (E). […]"}},
  "data": [
    {"smiles": "COC[C@@H]([C@H](O)[C@H](O)C(=O)NCC[C@H](C)c1nc(/C=C/C[C@@H]2O[C@]3(C[C@@H](O)[C@@H]2C)O[C@H]([C@H](C[C@H](O)[C@H](C)[C@H](O)[C@H](C)/C=C(C)/C(C)=C/C=C/C(C)=C\\C#N)OC)[C@H](OP(=O)(O)O)C3(C)C)co1)N(C)C", "note": "[calyculin A]", "values": [
      {"measurement": "localization of integrin β5 in FAs, PA-JEB/β4", "setting": "[1]; 5 nM calyculin A versus DMSO, 30 min, 10% FCS DMEM, colocalization with vinculin, three independent experiments", "value": "decreased the localization of integrin β5 in FAs"},
      {"measurement": "redistribution of the integrin", "setting": "[1]; calyculin A treatment, summary in discussion", "value": "only led to a minor redistribution of the integrin"},
      {"measurement": "localization of integrin β5 in FCLs, PA-JEB", "setting": "[2]; colocalization with clathrin", "value": "increased the localization in FCLs"},
      {"measurement": "localization of integrin β5 in FAs, PA-JEB", "setting": "[2]; colocalization with vinculin", "value": "reduced the localization of integrin β5 in FAs"},
      {"measurement": "phosphorylation of GEF-H1", "setting": "[3]", "value": "increase in the phosphorylation of GEF-H1"}
    ]}
  ]
}
